Results taken from US20230270148A1, “BITTER BLOCKERS AND RELATED METHODS OF USE” (Conagen Inc., priority 2020, published 2023).

How the values were obtained:
[1] = tested on: bitter-responsive human taste bud tissue-derived cells (hTBEC); assay: ATP secretion detection assay (luminescence); assay type: cell-based
Protocol: The bitter blocker candidates were further characterized using bitter-responsive human taste bud tissue-derived cells (hTBEC) platforms and bioassays. Bitter-responsive hTBECs were treated with hitter blocker candidates and various bitter agonists to assess the efficacy of each bitter blocker candidate in reducing the bitterness of each of the various bitter agonists.
One industry standard bitter agonist was used as a control (L-Praziquantel), and five bitter blocker controls were used (Senomyx BB68, STX-001, sodium gluconate, eridictyol, and homoeridictyol).
BB09, BB11, and BB13 were first tested at various concentrations in combination with 100 μM Dextromethorphan-HBr.
Next, bitter blocker concentration ranges were narrowed (100 μM-1,000 μM) and compared to a fixed concentration of stimulus. […] BB13 was evaluated further by real time ATP secretion detection in pooled hTBEC 66 cells treated with 300 μM Theobromine.
Each culture was treated with BB09, BB11, BB13, STX001, or Senomyx BB68, as well as either Dextromethorphan-HBr at 1000 μM (FIGS. 18A-18C), Theobromine at 1,000 μM (FIGS. 19A-19C), Rebaudioside A at 1 mM (FIGS. 20A-20C), or Caffeine at 3 mM (FIGS. 21A-21C).

[2] = tested on: dark roast coffee; assay: Sensory evaluation: bitterness reduction of dark roast coffee; assay type: in vivo; details: dosage 50 or 100 ppm per sample
Protocol: The bitterness blocker candidates listed in Table 1 were prepared into a 1% sample solution with propylene glycol and heated to ensure complete solubilization. […] A trained sensory evaluator was asked to estimate the perceived bitterness reduction against the control, as well as to provide comments on how the addition of the individual sample solution modulated the taste and mouth feel profile of the resulting dark roast coffee.

For `COc1cc([C@@H]2CC(=O)c3c(O)cc(O)cc3O2)ccc1O[C@@H]1O[C@H](CO)[C@@H](O)[C@H](O)[C@H]1O` [BB11, Homoeriodictyol 4′-O-glucoside], the “inhibition of luminescence activity of Dextromethorphan-HBr (ATP secretion)” value ([1]; 100 μM Dextromethorphan-HBr, various blocker concentrations (FIG. 12)) was “able to inhibit”, the “inhibition of the L-Praziquantel response (ATP secretion)” value ([1]; 400 μM L-Praziquantel, pooled donor-derived hTBEC (FIG. 13)) was “showed inhibition” and the “inhibition of the bitter agonists (ATP secretion)” value ([1]; hTBEC 66, hTBEC 56, hTBEC Donor H, Dextromethorphan-HBr at 1000 μM, Theobromine 1,000 μM, Rebaudioside A 1 mM or Caffeine 3 mM (FIGS. 18-21)) was “trends of inhibition in most cases”. The “Estimated % bitterness reduction” value ([2]; caffeine about 740 mg/l) was 80% and the Comments [2] was “Nice upfront bitterness reduction”.
